{"source": "patent US6720306B2", "about": "“Tetrapartate prodrugs” (priority 1997, dated 2004)", "tested_on": "human ovarian carcinoma (A2780)", "assay": "Efficacy of PEG-leu-doxorubicin analogs against subcutaneous human ovarian carcinoma (A2780) xenograft in nude mice", "type": "in vivo", "settings": "intravenous Qd7 × 3, 30 mg/kg/dose", "procedure": "The efficacy of PEG-leu-doxorubicin analogs against a subcutaneous human ovarian carcinoma (A2780) injected into nude mice was determined as follows.\nFollowing at least one week of acclimation, tumors were established in nude mice by injecting 1×10^6 […] harvested A2780 ovarian carcinoma cells in a single subcutaneous site, on the left axillary flank region of each animal. The tumor injection site was observed twice weekly and measured once palpable. The tumor volume for each mouse was determined by measuring two dimensions with calipers and calculated using the formula: tumor volume=(length×width^2)/2). When tumors reached the average volume of approximately 80 mm^3, the mice were divided into their respective experimental groups, which consists of vehicle (20 m M sodium phosphate in 0.6% NaCl) controls, Leu-Doxorubicin, compound 1 of Example 1, compound 10 of Example 4, and compound 12 of Example 5). The mice were sorted to evenly distribute tumor size, grouped into 6 mice/cage, and ear punched for permanent identification. Drugs were dosed intravenously via the tail vein once per week for three weeks (Qd7×3). Mouse weight and tumor sizes were measured at the beginning of study and twice weekly through week 5.\nThe overall growth of tumors was calculated as the mean tumor volume at one week following the end of the treatment. A percent treatment over control (T/C) value was also calculated when the control group's median tumor size reached approximately 800-1100 mm^3 and again at one week following treatment. The T/C value in percent is a non-quantitative indication of anti-tumor effectiveness.", "data": [{"smiles": "COc1cccc2c1C(=O)c1c(O)c3c(c(O)c1C2=O)C[C@@](O)(C(=O)CO)C[C@@H]3O[C@H]1C[C@H](NC(=O)[C@@H](N)CC(C)C)[C@H](O)[C@H](C)O1", "note": "[Leu-Dox, Leucine-doxorubicin]", "values": [{"measurement": "Tumor Volume (mean ± sem) Day 21", "setting": "A2780 xenograft in nude mice, established tumors ~80 mm^3, n = 6/group, day 21", "value": "659 ± 173", "unit": "mm^3"}, {"measurement": "T/C (%) At Day 21", "setting": "median tumor volume treatment vs control one week after final dosage (day 21)", "value": 19.7, "unit": "%"}, {"measurement": "T/C (%) At 1000 mm^3", "setting": "median tumor volume treatment vs control when control median reached approximately 1000 mm^3", "value": 26.3, "unit": "%"}]}]}
